Here are results for 7 compounds from US8263344B2, “Compounds regulating calreticulin, KDEL receptor and/or Erp-57 cell surface exposure and uses thereof to evaluate the efficiency of a cancer treatment” (Institut Gustave Roussy, priority 2006, dated 2012).

Test [1] concerns CT26 cells. The test can be described thus: Phagocytosis of tumour cells by dendritic cells (DC). Format: cell-based, BALB/c mice. The procedure: BM cells were flushed from the tibias and femurs of BALB/c mice with culture medium composed of RPMI 1640 medium (Invitrogen Life Technologies) supplemented with 10% heat-inactivated FBS (Invitrogen), sodium pyruvate, 50 μM 2-ME (Sigma), 10 mM HEPES (pH 7.4), and penicillin/streptomycin (Invitrogen). After one centrifugation, BM cells were resuspended in Tris-ammonium chloride for 2 min to lyse RBC. After one more centrifugation, BM cells (1×10^6 cells/ml) were cultured in medium supplemented with 100 ng/ml recombinant mouse FLT3 ligand (R&D systems) in 6-well plates (Costar Corning). After 7 days, the non-adherent and loosely adherent cells were harvested with Versene, washed and transferred in 12-well plates (1.5×10^6 cells/plate) for cocultures with tumour cells.
In 12-well plates, […] adherent CT26 cells were labelled with Celltracker Green (Calbiochem) and then incubated with drugs. In some experiments viable CT26 were coated with 2 μg/10^6 cells of chicken anti-CRT antibody (ABR affinity bioreagents) or an isotype control for 30 min prior to washing and feeding to dendritic cells Cs. Alternatively CT26 cells were coated with 2 μg/10^6 cells of rCRT on ice for 30 min and washed twice prior to addition to dendritic cells. Cells were then harvested, washed three times with medium supplemented with FBS and cocultured with immature DC for 2 hours at a ratio of 1:1 and 1:5. At the end of the incubation, cells were harvested with versene, pooled with non-adherent cells present in the supernatant, washed and stained with CD11c-FITC antibody. Phagocytosis was assessed by FACS analysis of double positive cells. Phagocytic indexes refer to the ratio between values obtained at 4° C. and values obtained at 37° C. of co-incubation between DC and tumour cells.

The subject of the next test is HCT116 colon cancer cell. In words: Calreticulin exposure with PP1/GADD34 inhibitory peptide (flow cytometry). Format: cell-based, human. The settings on record: 2 hours. The procedure: (§1) HCT116 cells (FIG. 7A) or CT26 cells (FIG. 7B) were cultured in complete mediums supplemented with 10% fetal calf serum alone or in the presence of the control peptide (VKKKKIKREIKI-lkaravafsekv) or the PP1/GADD34 inhibitory peptide (VKKKKIKREIKI-lkarkvrfsekv, denominated PP1 peptide) for 2 hours. Cells were washed twice with PBS and fixed in PFA (4% w/v) for 5 min. Cells were stained with an antibody against calreticulin (pAb from Abcam, ab2907) at 1:200 dilution or isotype control, in staining buffer (PBS, 1% FCS) for 30 min on ice, followed by washing. An anti-rabbit Alexa fluor 488 immunoglobulin conjugate (Molecular Probes-Invitrogen) diluted at 1:500 was added for an additional 30 min on ice before washing and analysed by flow cytometry (FACScan, Becton Dickinson). Propidium Iodide (50 μg/ml, Becton Dickinson) was added to the samples to label and exclude permeabilized (dead) cells.
(Flow cytometry measures light scatter and fluorescence of single cells or particles in a stream.)

The test system of a further test is CT26 colon cancer cells. The test is described as above. The test is classed as cell-based, murine. The note with it: 2 hours. The procedure:
as §1

A further test has as its system CT26 tumour cells. In words: Anti-tumour vaccination with treated (dying) CT26 cells and challenge with live tumour cells. The test is classed as in vivo, BALB/c mice. The note with it: for immunogenic cell death by PP1/GADD34 inhibition alone: mouse, in vivo.
The test system of another test is HeLa cells. In words: Surface ERp57 detection (immunofluorescence, flow cytometry). The test is classed as cell-based, human. The settings on record: MTX 1 μM, 2 h. The procedure:
HeLa cells were cultured on cover slips (in RPM1160 medium supplemented with 10% fetal calf serum, L-glutamine and antibiotics), in the absence (control) or in the presence of 1 μM mitoxantrone (MTX, Sigma) for 2 h. For the intracellular stainings, HeLa cells were fixed and permeabilised by means of Cytofix/Cytoperm kit from Becton Dickinson according to the manufacturer's instructions. For the surface stainings, HeLa cells were fixed with paraformadehyde (4% w/v) on ice for 5 min. […] Nuclei were labelled with DAPI mounting medium (Vectashield). Fluorescence microscopy was analyzed with a Leica IRE2 equipped with a DC300F camera. Size bars represent 10 μm.
HeLa cells were treated with or without mitoxantrone (MTX, 1 μM) or tautomycin (Tau, 150 nM, Sigma) for 2 h. Cells were washed twice with PBS and fixed in PFA (4% w/v) for 5 min. HeLa cells were stained with an antibody against Erp57 (pAb from Abcam, ab10827) at 1:200 dilution or isotype control, in staining buffer (PBS, 1% FCS) for 30 min on ice, followed by washing. An anti-rabbit Alexa fluor 488 immunoglobulin conjugate (Molecular Probes-Invitrogen) diluted at 1:500 was added for an additional 30 min on ice before washing and analysed by flow cytometry (FACScan, Becton Dickinson). […] The CellQuest software was used to analyse the mean fluorescence intensity (MFI) and the percentage of ERp57 positive cells.
FIG. 12: ERp57 exposure depends on the activation of a caspase. • (A) HeLa cells were treated with MTX (1 μM) for 2 h in the presence or absence of 50 μM zVAD.fmk. The MFI of surface Erp57 positive cells was analysed as described in FIG. 9. • (B) HCT116 parental cells stably transfected with either a vector encoding p35 (Stennicke et al., 2002; Date et al., 2003) or with a PCMV vector (Sigma) as control, were treated with MTX (1 μM) for 2 h. The MFI of surface Erp57 positive cells was analysed as described in FIG. 9. • (C) HCT116 cells were pre-incubated in the presence of 50 μM biotinylated VAD.fmk (Calbiochem) for 2 h. […]

For test [2], the system named is CT26 cells. In words: Biotinylation of cell surface proteins, 2D gel electrophoresis and mass spectrometry.
The subject of test [3] is CT26 tumours. The test can be described thus: Single intratumoural injection into established CT26 tumours, immunocompetent mice. The test is classed as in vivo, BALB/c mice. The settings on record: for therapeutic effect of intratumoural injection, single agent, immunocompetent mice: established 14-day-old CT26 tumours; for therapeutic effect combined with a cell death inducer (etoposide or mitomycin C), immunocompetent mice: intratumoural.

In test [4] the test system is CT26 cells. The test can be described thus: Fluorescence detection of cell surface CRT. Format: cell-based, murine. The protocol: CT26 cells were cultured at 37° C. under 5% CO2 in RPMI 1640 medium supplemented with 10% FCS, penicillin, streptomycin, 1 mM pyruvate and 10 mM HEPES in the presence of doxorubicin (DX; 24 h, 25 μM), mitoxantrone (Mitox; 24 h, 1 μM, Sigma), idarubicin (24 h, 1 μM, Aventis, France), mitomycin C (30 μM, 48 h; Sanofi-Synthelabo, France), and/or zVAD-fmk (50 μM, 24 h; Bachem), tunicamycin (24 h, 65 μM), thapsigargin (24 h, 30 μM), brefeldin A (24 h, 50 μM, Sigma), etoposide (48 h, 25 μM, Tava classics), MG132 (48 h, 10 μM), ALLN (48 h, […]), betulinic acid (24 h, 10 μM), Hoechst 33343 (24 h, 0.2 μM), camptothecine (24 h, 15 μM), lactacystin (48 h, 60 μM), BAY 11-8072 (24 h, 30 μM), staurosporine (24 h, 1.5 μM), bafilomycin A1 (48 h, 300 nM), arsenic trioxide (24 h, 30 μM), C2-ceramide (C2-C; 24 h, 60 μM), calyculin A (48 h, 30 nM), or tautomycin (48 h, […], Sigma) and/or salubrinal (48 h, […], Calbiochem).
CT26 cells (on a glass slide or in 12-well plates) were first washed with FACS buffer (1×PBS, 5% fetus bovine serum, and 0.1% sodium azide) and then incubated with rabbit anti-mouse CRT antibody (1:100, Stressgen) in FACS buffer at 4° C. for 30 min. Cells reacted with anti-rabbit IgG (H+L) Alexa fluor 488-conjugates (1:500) in FACS buffer at 4° C. for 30 min. After washing three times with FACS buffer, surface CRT was detected by cytofluorometric analysis on a FACS Vantage. In some experiments, cells were fixed with 4% paraformaldehyde, counterstained with Hoechst (2 μM; Sigma), followed by fluorescence microscopic assessment with a Leica IRE2 microscope equipped with a DC300F camera.

For test [5], the system named is CT26 tumours. The test can be described thus: Single intratumoural injection into established CT26 tumours, athymic mice. Also on record: species or system nu/nu Balb/c mice. The note with it: mouse, in vivo.
The test system of another test is HeLa, A549, HCT116. The test can be described thus: CRT exposure on a panel of human tumour cell lines. Format: cell-based.
In the next test the test system is MCA205, B16F10, J558. The test can be described thus: CRT exposure on a panel of murine tumour cell lines. Format: cell-based.

Peptide text beside a SMILES is read from it. * marks the point of attachment. Cbz = O=C(OCc1ccccc1)*; CH2F = FC*

For the compound “5′-rCrCrGrCUrGrGrGUrCrGrArAUrCrRrArATT-3′ [specific siRNA]”, the “phagocytosis by DC of anthracyclin/mitoxantrone-treated tumour cells after blockade or knockdown of CRT” value in the test on CT26 cells [1] is “suppressed the phagocytosis”.
Consider “VKKKKIKREIKI-lkaravafsekv [mutant control peptide]”, for which, in the test with HCT116 colon cancer cell, the “exposure of calreticulin, HCT116” value is “did not induce calreticulin exposure”. For the same compound, in the test on CT26 colon cancer cells, the “exposure of calreticulin, CT26” value is “did not induce calreticulin exposure”.
With `COC(=O)C[C@H](NC(=O)[C@H](C)NC(=O)[C@@H](NC(=O)OCc1ccccc1)C(C)C)C(=O)CF` [Z-VAD-fmk] (Cbz-Val-Ala-Asp(OMe)-CH2F), the “effect on immunogenicity of doxorubicin-elicited cell death” value in the test with CT26 tumour cells (doxorubicin plus Z-VAD-fmk) was “reduces the immunogenicity”. Moreover, the “effect on ERp57 exposure induced by MTX” value in the test with HeLa cells is given as “abolished”.
For `COc1cccc2c1C(=O)c1c(O)c3c(c(O)c1C2=O)C[C@@](O)(C(=O)CO)C[C@@H]3O[C@H]1C[C@H](N)[C@H](O)[C@H](C)O1` [doxorubicin], the “immunogenic apoptosis / immunogenic cell death (protection against tumour growth)” value in the test with CT26 tumour cells (dying CT26 cells injected into one flank, rechallenge with live tumour cells in opposite flank 8 days later) was “elicited immunogenic cell death”. In addition, in the test on CT26 cells [1] (within a few hours after treatment), the “phagocytosis of treated tumour cells by DC” value is reported as “acquired the property to be phagocytosed by DC”. Further, in the test on CT26 cells [2] (4 h, doxorubicin plus Z-VAD-fmk), the “induction of surface CRT (factor), combined with Z-VAD-fmk” value came to 1.8. Besides, the ERP57 surface exposure result in the test with CT26 cells [2] (4 h treatment, 2D electrophoreses) was “specifically induced”. Moreover, the “induction of surface CRT (factor)” value in the test on CT26 cells [2] (short-term (4 h) treatment, biotinylated surface proteins, 2D electrophoreses) is 6.
In the case of `CO[C@H]([C@H](O)CC(=O)[C@@H](C)[C@@H](O)CC[C@@H](C)[C@@H]1O[C@]2(CC[C@@H](C)[C@H](CC[C@H](C)C(C)=O)O2)CC[C@@H]1C)[C@H](OC(=O)C[C@@H](O)C1=C(C)C(=O)OC1=O)C(C)C` [tautomycin], in the test on CT26 tumours [3], the “therapeutic effect of intratumoural injection, single agent, immunocompetent mice” value was “no major therapeutic effect” and the “therapeutic effect combined with a cell death inducer (etoposide or mitomycin C), immunocompetent mice” value is “stable disease or complete tumour regression”. Further, in the test on CT26 tumour cells, the “immunogenic cell death by PP1/GADD34 inhibition alone” value is “not sufficient to induce immunogenic cell death”. Also, the “surface exposure of ERp57” value in the test with HeLa cells (Tau 150 nM) was “stimulates the surface exposure”. Further, the “CRT exposure at the cell surface” value with CT26 cells [4] was “efficiently induced”. Besides, the “therapeutic effect of intratumoural injection, single agent, nu/nu mice” value with CT26 tumours [5] is “no major therapeutic effect”.
On to `O=C(/C=C/c1ccccc1)NC(NC(=S)Nc1cccc2cccnc12)C(Cl)(Cl)Cl` (stereo not shown) [salubrinal], for which, in the test with CT26 tumours [3], the “therapeutic effect of intratumoural injection, single agent, immunocompetent mice” value is given as “no major therapeutic effect” and the “therapeutic effect combined with a cell death inducer (etoposide or mitomycin C), immunocompetent mice” value is recorded as “stable disease or complete tumour regression”. Besides, the “immunogenic cell death by PP1/GADD34 inhibition alone” value in the test with CT26 tumour cells is “not sufficient to induce immunogenic cell death”. In the test on CT26 cells [4], the “CRT exposure at the cell surface” value is “efficiently induced”. Besides, the “CRT exposure, human tumour cell lines” value in the test on HeLa, A549, HCT116 is “induced CRT exposure”. Moreover, the “CRT exposure, murine tumour cell lines” value in the test with MCA205, B16F10, J558 is listed as “induced CRT exposure”. The “therapeutic effect of intratumoural injection, single agent, nu/nu mice” value with CT26 tumours [5] is listed as “no major therapeutic effect”.
“VKKKKIKREIKI-LKARKVRFSEKV (VKKKKIKREIKILKARKVRFSEKV) [peptide comprising SEQ ID NO:4, fragment of GADD34 fused to a DPT-sh1 translocation motif]”: the “exposure of calreticulin, HCT116” value in the test on HCT116 colon cancer cell was “capable of inducing the exposure of calreticulin”. The “exposure of calreticulin, CT26” value in the test with CT26 colon cancer cells is recorded as “capable of inducing the exposure of calreticulin”.
